Measured values published in ChEMBL document CHEMBL1806432, “Cytotoxic diterpenoid quinonemethides from the roots of Pygmacopremna herbacea” (Bioorg Med Chem Lett, 2011).
≈ marks a conversion by molar mass, not a printed value.

What was measured:
Type in all cases: functional, cell-based
MCF7 = assay: Cytotoxicity against human MCF7 cells after 48 hrs by MTT assay; settings: MCF7, 48 h
A549 = assay: Cytotoxicity against human A549 cells after 48 hrs by MTT assay; settings: A549, 48 h
HepG2 = assay: Cytotoxicity against human HepG2 cells after 48 hrs by MTT assay; settings: HepG2, 48 h
PC-3 = assay: Cytotoxicity against human PC3 cells after 48 hrs by MTT assay; settings: PC-3, 48 h
HeLa = assay: Cytotoxicity against human HeLa cells after 48 hrs by MTT assay

Row | SMILES | IC50 (MCF7) | IC50 (A549) | IC50 (HepG2) | IC50 (PC-3) | IC50 (HeLa)
1 | CC(C)C1=CC2=CC=C3C(C)(C)CC(=O)C[C@@]3(C)C2=C(O)C1=O | 27.6 µg/mL (≈ 88.3 µM) | 17.6 µg/mL (≈ 56.3 µM) | 38.2 µg/mL (≈ 122 µM) | 1.7 µg/mL (≈ 5.44 µM) | 15.6 µg/mL (≈ 49.9 µM)
2 | CC(C)C1=CC2=CC=C3C(C)(C)[C@@H](O)C(=O)C[C@]3(C)C2=C(O)C1=O [ISOBHARANGIN] | 28.2 µg/mL (≈ 85.9 µM) | 24.1 µg/mL (≈ 73.4 µM) | 6.29 µg/mL (≈ 19.2 µM) | 62.2 µg/mL (≈ 189 µM) | 103 µg/mL (≈ 315 µM)
3 | COc1cccc2c1C(=O)c1c(O)c3c(c(O)c1C2=O)C[C@@](O)(C(=O)CO)C[C@@H]3O[C@H]1C[C@H](N)[C@H](O)[C@H](C)O1 [DOXORUBICIN] |  | 0.51 µg/mL (≈ 0.938 µM) | 1.6 µg/mL (≈ 2.94 µM) | 2.3 µg/mL (≈ 4.23 µM) | 0.24 µg/mL (≈ 0.442 µM)
4 | CC(C)C1=CC2=CC=C3C(C)(C)COC(=O)[C@@]3(C)CC2=C(O)C1=O [NEOBHARANGIN] | 0.39 µg/mL (≈ 1.19 µM) | 2.61 µg/mL (≈ 7.95 µM) | 13 µg/mL (≈ 39.6 µM) | 48.6 µg/mL (≈ 148 µM) | 104 µg/mL (≈ 318 µM)
5 | CC(C)C1=CC2=CC=C3C(C)(C)CC(=O)O[C@@]3(C)CC2=C(O)C1=O [BHARANGIN] | 0.006 µg/mL (≈ 0.0183 µM) | 2.03 µg/mL (≈ 6.18 µM) | 14.3 µg/mL (≈ 43.5 µM) | 2.95 µg/mL (≈ 8.98 µM) | 14.1 µg/mL (≈ 42.9 µM)
